Experimental data taken from patent publication US6008247A, “2,4-bis[(4-amidino)phenyl]furans as anti-Pneumocystis carinii agents” (The University of North Carolina at Chapel Hill, priority 1998, dated 1999).
Counter-ions that a name gives are not always drawn.

What was measured:
[1] = system: DNA duplex polymer poly(dA-dT); experiment: Thermal melting, interaction with the DNA duplex polymer poly(dA-dT); type: binding
Description: (§1) Table 2 contains thermal melting results from evaluation of the interaction of compounds 3, 5 and 7 with the DNA duplex polymer poly(dA-dT). In order to rank the relative binding affinities for interactions with DNA, the duplex oligomer d(CGCGAATTCGCG)2 (A2 T2) was employed. […] The increase in melting temperature on complex formation with the furan dications are related to the binding affinities of these molecules with nucleic acid. This enhanced DNA affinity of the N-alkyl substituted amidines is though to the in large part due to additional non-bonded interactions between the alkyl groups and the walls of the minor groove.
^a) Increase in thermal melting of polyA-- polyT, see Boykin, […]

Pneumocystis carinii = experiment: In vivo evaluation on intravenous administration against P. carinii in the immunosuppressed rat model; conditions: saline = 100.0
[2] = Toxicity in the immunosuppressed rat model of Pneumocystis carinii pneumonia; type: in vivo; conditions: iv
Description: Data obtained with pentamidine, a compound currently used clinically for treatment of PCP, are included for comparison.
^c) Evluation of iv dosage of the furon dicatons against P. carinii i
rats as descibed in Boykin, supra.

[3] = system: duplex oligomer d(CGCGAATTCGCG)2 (A2 T2); experiment: Thermal melting with the duplex oligomer, ranking of relative DNA binding affinities; conditions: duplex oligomer A2T2
Description: as §1
^b) Increase in thermal melting of the oligomer […], see

| SMILES | ΔTm (DNA), increase in thermal melting of polyA-polyT [1] | Cysts/g lung (Pneumocystis carinii; 10.0 umol/kg/d) | Toxicity ([2]; 10.0 umol/kg/d) | ΔTM (oligomer), increase in thermal melting of the oligomer [3] | Cysts/g lung (Pneumocystis carinii; 22.0 umol/kg/d) | Cysts/g lung (Pneumocystis carinii; 0.25 umol/kg/d) | Cysts/g lung (Pneumocystis carinii; 1.0 umol/kg/d) | Cysts/g lung (Pneumocystis carinii; 5.0 umol/kg/d) | Toxicity ([2]; 0.25 umol/kg/d) | Toxicity ([2]; 1.0 umol/kg/d) | Toxicity ([2]; 5.0 umol/kg/d) |
| --- | --- | --- | --- | --- | --- | --- | --- | --- | --- | --- | --- |
| N=C(N)c1ccc(-c2coc(-c3ccc(C(=N)N)cc3)c2)cc1 [Compound 1, 2,4-Bis[4-{(amidino)pnehyl}]furan] | 19.0 | 0.44 % of control | 0 | 9.1 | – | – | – | – | – | – | – |
| N=C(N)c1ccc(OCCCCCOc2ccc(C(=N)N)cc2)cc1 [pentamidine, reference compound] | – | – | – | – | 1.46 % of control | – | – | – | – | – | – |
| CC(C)NC(=N)c1ccc(-c2coc(-c3ccc(C(=N)NC(C)C)cc3)c2)cc1 [Compound 2, 2,4-Bis[4-{N-(i-propylamidino)phenyl}]furan] | 17.6 | 0.03 % of control | 0 | 10.9 | – | 38.20 % of control | 0.84 % of control | 0.0003 % of control | 0 | 0 | 0 |
| N=C(NC1CCCC1)c1ccc(-c2coc(-c3ccc(C(=N)NC4CCCC4)cc3)c2)cc1 [Compound 4, 2,4-Bis[4-{N-(cyelopentylamidino)phenyl}]furan] | 20.4 | 0.06 % of control | 0 | 13.6 | – | – | 3.21 % of control | – | – | – | – |
| CC(C)CNC(=N)c1ccc(-c2coc(-c3ccc(C(=N)NCC(C)C)cc3)c2)cc1 [Compound 3, 2-,4-Bis[4-{-(i-butylamidino)phenyl}]furan] | 20.4 | – | – | 9.3 | – | – | – | – | – | – | – |
| c1cc(-c2coc(-c3ccc(C4=NCCN4)cc3)c2)ccc1C1=NCCN1 [Compound 5, 2,4-Bis[4,5-dihydro-1H-imidazol-2-yl)phenyl]furan Dihydrochloride] | 16.8 | – | – | 7.2 | – | – | – | – | – | – | – |
